Assay results reported in patent publication US20170050966A1, “INHIBITING THE TRANSIENT RECEPTOR POTENTIAL A1 ION CHANNEL” (HYDRA BIOSCIENCES, INC., priority 2014, published 2017).
Where two headings read alike, the source gives them in different places.

Legend:
[1] = Plasma protein binding, equilibrium dialysis; details: pooled K2EDTA plasma
Method: With this method, free compound is separated from protein-bound compound by dialysis across a semi-permeable membrane.
The protein binding was tested at a concentration of 1 μM. Pooled human, cynomolgus monkey, dog, and rat K2EDTA plasma was thawed and centrifuged at 2000×g for 10 minutes at 4° C. to remove particulates; any lipid on the top of the supernatant was also removed by aspiration. The plasma was warmed to 37° C. for 10 minutes before use. Test compounds were spiked into 2 ml plasma in a polypropylene plate to a final concentration of 1 μM. Triplicate 400 μl aliquots of spiked plasma were transferred into the Thermo RED dialysis units and dialyzed against 600 μl of PBS buffer. […] After 6 hours dialysis, triplicate 50 μl aliquots were removed from the RED plate, matrix-matched with either PBS buffer or blank plasma, as appropriate, and quenched with 4 volumes of ACN containing an internal standard. The extracted samples were then centrifuged at 2000×g for 5 minutes at 4° C. The supernatant (50 μl) was removed and diluted with 100 μl water prior to LC/MS/MS bioanalysis.

human TRPA1 (hTRPA1) = target: T1, human TRPA1 (hTRPA1) (Homo sapiens, UniProt O75762); assay: hTRPA1 IC50 in presence of albumin and plasma, whole-cell patch clamp; assay type: cell-based; details: for IC50: 20 μM AITC
T1 construct: expressed in transfected cells
T1 sequence (O75762 whole entry): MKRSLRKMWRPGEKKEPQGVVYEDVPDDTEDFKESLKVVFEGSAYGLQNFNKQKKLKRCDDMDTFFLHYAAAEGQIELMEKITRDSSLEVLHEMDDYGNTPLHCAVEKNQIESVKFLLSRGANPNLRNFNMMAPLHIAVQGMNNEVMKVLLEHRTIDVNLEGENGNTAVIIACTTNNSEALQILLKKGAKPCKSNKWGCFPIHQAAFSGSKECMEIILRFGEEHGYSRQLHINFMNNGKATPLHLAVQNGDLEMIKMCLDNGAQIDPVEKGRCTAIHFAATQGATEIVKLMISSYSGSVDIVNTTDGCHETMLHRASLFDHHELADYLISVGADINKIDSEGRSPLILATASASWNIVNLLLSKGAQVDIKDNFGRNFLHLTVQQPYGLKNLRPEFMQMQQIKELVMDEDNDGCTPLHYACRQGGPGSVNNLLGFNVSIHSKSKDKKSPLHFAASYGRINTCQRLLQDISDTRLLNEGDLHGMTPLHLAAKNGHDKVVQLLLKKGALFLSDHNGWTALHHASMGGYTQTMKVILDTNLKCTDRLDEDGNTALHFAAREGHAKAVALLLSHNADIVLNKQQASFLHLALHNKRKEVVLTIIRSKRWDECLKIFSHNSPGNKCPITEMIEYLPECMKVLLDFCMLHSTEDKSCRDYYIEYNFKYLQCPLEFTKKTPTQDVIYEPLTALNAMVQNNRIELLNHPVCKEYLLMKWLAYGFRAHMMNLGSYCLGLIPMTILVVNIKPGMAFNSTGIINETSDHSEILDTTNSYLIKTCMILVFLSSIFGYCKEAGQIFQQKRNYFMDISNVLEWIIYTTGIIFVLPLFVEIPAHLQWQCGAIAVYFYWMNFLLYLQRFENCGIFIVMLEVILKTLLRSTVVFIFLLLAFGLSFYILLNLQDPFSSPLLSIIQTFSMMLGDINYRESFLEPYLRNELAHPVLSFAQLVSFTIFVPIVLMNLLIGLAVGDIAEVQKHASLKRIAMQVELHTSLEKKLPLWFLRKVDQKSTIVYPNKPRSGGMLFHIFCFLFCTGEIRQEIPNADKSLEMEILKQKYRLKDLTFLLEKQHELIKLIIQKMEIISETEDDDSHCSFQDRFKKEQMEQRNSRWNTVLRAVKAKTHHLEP
Description: The change in IC50 block in the presence of albumin and plasma was also studied. It is assumed that the pharmacological effect of a drug correlates to unbound plasma levels, which is known as the “free drug hypothesis”. The aim of this study was to estimate the change in IC50 for block of human TRPA1 (hTRPA1) by Compound 2 in the presence of physiologically relevant concentrations of albumin and plasma (see Table 7). The human form of TRPA1 was used to assess protein binding in all species due to technical issues. The whole-cell patch clamp technique as described in del Camino, D. et al. J Neurosci 74 (2010) 30:15165 was employed to measure current through hTRPA1 upon activation by allyl isothiocyanate (AITC), the active ingredient in mustard oil, in the presence of 1% (w/v) serum albumin or 25% (v/v) plasma from various species including human plasma (hPlasma), human serum albumin (HSA), rat plasma (rPlasma), rat serum albumin (RSA), dog plasma, and sheep serum albumin (sheepSA). Compound 2 was sub-diluted from a 10 mM stock in DMSO to 10 and 100 μM in DMSO, then diluted into Ringer solution at the concentrations referenced in Table 7 and Table 8.

dogTRPA1 = dogTRPA1 (Canis lupus familiaris, UniProt A0A8I3Q1Q7); assay: TRPA1 IC50, whole-cell patch clamp; assay type: cell-based, Dog; details: dogTRPA1, 10 μM AITC; read-out: IC50 Inward current
Chain of dogTRPA1 (A0A8I3Q1Q7 1-1118): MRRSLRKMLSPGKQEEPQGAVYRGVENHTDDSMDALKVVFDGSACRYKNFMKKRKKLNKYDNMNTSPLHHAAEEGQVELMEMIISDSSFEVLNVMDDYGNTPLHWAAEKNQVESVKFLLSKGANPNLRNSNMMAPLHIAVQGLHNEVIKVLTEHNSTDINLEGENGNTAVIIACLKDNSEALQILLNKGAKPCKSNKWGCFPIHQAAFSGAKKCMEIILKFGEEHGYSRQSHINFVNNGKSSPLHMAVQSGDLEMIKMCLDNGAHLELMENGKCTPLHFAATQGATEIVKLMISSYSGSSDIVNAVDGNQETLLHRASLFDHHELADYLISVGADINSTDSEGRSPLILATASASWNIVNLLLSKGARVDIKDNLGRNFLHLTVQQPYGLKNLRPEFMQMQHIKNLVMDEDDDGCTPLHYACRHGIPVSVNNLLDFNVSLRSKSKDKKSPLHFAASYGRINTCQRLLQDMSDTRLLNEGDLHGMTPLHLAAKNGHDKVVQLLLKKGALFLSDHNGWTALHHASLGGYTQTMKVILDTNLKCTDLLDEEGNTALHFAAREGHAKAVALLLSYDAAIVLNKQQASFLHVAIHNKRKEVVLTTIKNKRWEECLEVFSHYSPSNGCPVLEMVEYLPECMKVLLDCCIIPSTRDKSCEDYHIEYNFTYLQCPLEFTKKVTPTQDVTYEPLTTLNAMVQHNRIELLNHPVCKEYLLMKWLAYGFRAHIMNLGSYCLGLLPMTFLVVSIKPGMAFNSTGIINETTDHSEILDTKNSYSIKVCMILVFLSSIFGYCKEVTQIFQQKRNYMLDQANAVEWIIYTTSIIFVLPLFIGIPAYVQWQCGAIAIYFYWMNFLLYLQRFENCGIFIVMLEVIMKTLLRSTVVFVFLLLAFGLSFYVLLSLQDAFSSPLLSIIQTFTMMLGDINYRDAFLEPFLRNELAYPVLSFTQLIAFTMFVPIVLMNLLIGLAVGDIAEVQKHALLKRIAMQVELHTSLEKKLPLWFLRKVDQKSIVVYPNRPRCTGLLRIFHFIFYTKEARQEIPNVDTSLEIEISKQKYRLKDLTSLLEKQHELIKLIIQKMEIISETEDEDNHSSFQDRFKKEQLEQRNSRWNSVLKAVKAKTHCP
Description: The change in IC50 block in the presence of albumin and plasma was also studied. It is assumed that the pharmacological effect of a drug correlates to unbound plasma levels, which is known as the “free drug hypothesis”. The aim of this study was to estimate the change in IC50 for block of human TRPA1 (hTRPA1) by Compound 2 in the presence of physiologically relevant concentrations of albumin and plasma (see Table 7). The human form of TRPA1 was used to assess protein binding in all species due to technical issues. The whole-cell patch clamp technique as described in del Camino, D. et al. J Neurosci 74 (2010) 30:15165 was employed to measure current through hTRPA1 upon activation by allyl isothiocyanate (AITC), the active ingredient in mustard oil, in the presence of 1% (w/v) serum albumin or 25% (v/v) plasma from various species including human plasma (hPlasma), human serum albumin (HSA), rat plasma (rPlasma), rat serum albumin (RSA), dog plasma, and sheep serum albumin (sheepSA). […]
Data for TRPA1 inhibition was obtained by this method for the indicated compounds of Formula (I), with the relevant data included in Table 14 below. All currents were recorded in whole-cell configuration using EPC-9 and EPC-10 amplifiers and Patchmaster software (HEKA). […]

CYP1A2 = target: T2, CYP1A2 (Homo sapiens, UniProt P05177); assay: CYP450 inhibition at 10 μM; assay type: biochemical; details: probe Phenacetin, 1A2, substrate Phenacetin
T2 sequence (P05177 1-516): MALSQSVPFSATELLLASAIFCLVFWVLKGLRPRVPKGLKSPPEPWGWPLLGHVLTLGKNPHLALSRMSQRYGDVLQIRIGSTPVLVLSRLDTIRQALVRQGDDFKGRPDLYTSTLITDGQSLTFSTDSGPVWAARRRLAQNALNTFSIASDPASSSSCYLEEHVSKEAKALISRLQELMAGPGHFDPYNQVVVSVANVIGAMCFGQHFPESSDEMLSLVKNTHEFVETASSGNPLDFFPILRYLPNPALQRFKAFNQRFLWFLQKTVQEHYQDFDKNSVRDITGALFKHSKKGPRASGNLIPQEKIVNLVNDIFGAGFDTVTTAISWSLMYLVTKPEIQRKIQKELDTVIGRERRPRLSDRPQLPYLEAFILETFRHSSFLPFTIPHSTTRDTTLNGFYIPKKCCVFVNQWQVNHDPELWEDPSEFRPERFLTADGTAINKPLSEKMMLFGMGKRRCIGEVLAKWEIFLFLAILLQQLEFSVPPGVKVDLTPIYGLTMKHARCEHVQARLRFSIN

[2] = test system: T3, human CYP450 enzymes (seven isozymes tested); assay: CYP450 inhibition, seven isozymes overall; assay type: biochemical; details: human, read-out: calculated IC50 values
T3 construct: other: seven isozymes tested

human CYP450 enzymes = assay: CYP450 inhibition, seven isozymes overall; assay type: biochemical; details: 10 μM, seven isozymes tested
[3] = CYP450 reaction phenotyping in human liver microsomes; assay type: in vitro ADME; details: human liver microsomes with and without selective CYP450 inhibitors
Method: CYP450 reaction phenotyping of Compound 2 was conducted by incubating the test article with human liver microsomes in the presence and absence of selective CYP450 inhibitors.

[4] = Storage stability of anhydrous solid crystalline form (XRPD); assay type: physicochemical; details: Form B, ambient conditions for three months
Description: After storage of this solid crystalline form at ambient conditions for three months, the sample was subjected to XRPD analysis again.

CYP2C8 = CYP2C8 (Homo sapiens, UniProt P10632); assay: in vitro; details: probe Amodiaquine
Chain of CYP2C8 (P10632 whole entry): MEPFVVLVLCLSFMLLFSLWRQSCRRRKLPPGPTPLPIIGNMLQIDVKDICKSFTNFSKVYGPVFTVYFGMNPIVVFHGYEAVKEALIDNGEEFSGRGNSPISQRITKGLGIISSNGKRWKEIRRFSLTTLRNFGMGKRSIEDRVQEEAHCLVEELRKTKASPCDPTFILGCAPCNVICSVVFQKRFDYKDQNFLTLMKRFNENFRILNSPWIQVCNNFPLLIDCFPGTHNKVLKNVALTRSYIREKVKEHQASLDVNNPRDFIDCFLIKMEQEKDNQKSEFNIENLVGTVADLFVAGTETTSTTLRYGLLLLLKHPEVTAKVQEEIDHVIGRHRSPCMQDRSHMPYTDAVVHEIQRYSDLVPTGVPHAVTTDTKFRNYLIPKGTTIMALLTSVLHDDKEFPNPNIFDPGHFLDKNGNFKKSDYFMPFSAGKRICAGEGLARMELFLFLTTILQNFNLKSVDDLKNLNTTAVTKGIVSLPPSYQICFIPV

fraction unbound at 6 h, 1 μM ([1]; beagle, dog): 0.055
fraction unbound at 6 h, 1 μM ([1]; cynomolgus monkey): 0.02
IC50 (human TRPA1 (hTRPA1); 1% (w/v) rat serum albumin, read-out: IC50 + RSA): 95 ± 9 nM
IC50 (human TRPA1 (hTRPA1); 1% (w/v) sheep serum albumin, read-out: IC50 + SheepSA): 70 ± 10 nM
IC50 (human TRPA1 (hTRPA1); 25% (v/v) dog plasma, read-out: IC50 + dog Plasma): 221 ± 54 nM
IC50 (human TRPA1 (hTRPA1); 25% (v/v) human plasma, read-out: IC50 + hPlasma): 95 ± 2 nM
IC50 (human TRPA1 (hTRPA1); 25% (v/v) rat plasma, read-out: IC50 + rPlasma): 68 ± 8 nM
Fold Shift (human TRPA1 (hTRPA1); IC50 + RSA): 14X
Fold Shift (human TRPA1 (hTRPA1); IC50 + SheepSA): 10X
Fold Shift (human TRPA1 (hTRPA1); IC50 + dog Plasma): 32X
Fold Shift (human TRPA1 (hTRPA1); IC50 + hPlasma vs IC50 in absence of serum): 14 X
Fold Shift (human TRPA1 (hTRPA1); IC50 + rPlasma): 10X
binding to plasma proteins based on the shift in IC50 (human TRPA1 (hTRPA1); across the four species tested): 90-97%
time to complete block and reversal upon washout (human TRPA1 (hTRPA1); hTRPA1 currents): 2 to 3 min
IC50 (dogTRPA1): 23.5 ± 6.4 nM
inhibition at 10 µM (CYP1A2): 9%
IC50 [2]: > 10000 nM
maximum block of human CYP450 enzymes (human CYP450 enzymes): up to 37%
CYP450 isozymes involved in in vitro metabolism [3]: involved mainly the CYP3A4 isozymes
XRPD pattern after storage [4]: matches the original indexed pattern
inhibition at 10 µM (CYP2C8): 3.2%
SMILES: C[C@@H](C(=O)Nc1ccnc(-c2cnc(N3CCC[C@H]3C(F)(F)F)nc2)n1)n1cnc2c1c(=O)n(C)c(=O)n2C [Compound 2, (S)-2-(1,3-dimethyl-2,6-dioxo-2,3-dihydro-1H-purin-7(6H)-yl)-N-(2′-((S)-2-(trifluoromethyl)pyrrolidin-1-yl)-[2,5′-bipyrimidin]-4-yl)propanamide]
